Experimental data from patent US11161888B2, “Method for regulating targeting of Cyclin Y (CCNY) protein to synapses” (KOREA INSTITUTE OF SCIENCE AND TECHNOLOGY, priority 2018, dated 2021).
Entries after “also recorded” stand apart in the source; their conditions may differ.

Experiments:
[1] = test system: hippocampal neurons overexpressing CCNY-WT-EGFP; assay: Confocal imaging of CCNY-WT-EGFP membrane association in neurons treated with palmitoylation blocker; type: cell-based, rat; settings: 2-bromopalmitate 100 μM, 4 hours, hippocampal neurons (FIG. 1D)
Procedure: Specifically, (A) is a confocal single-plane image of hippocampal neurons overexpressing EGFP-tagged CCNY-WT. […] The scale bars are 20 μm (top) and 5 μm (bottom). […] The scale bar is 20 μm.
HEK 293T cells were grown in DMEM (Gibco) supplemented with 10% fetal bovine serum. Hippocampal neuronal cultures were prepared from E18 Sprague-Dawley (SD) rat embryos. The hippocampal neurons were grown on poly-D-lysine ([…]; Sigma)-coated 18 mm glass coverslips and maintained for 10 to 21 days in vitro (DIV) in 12-well plates containing B27 and Glutamax-supplemented Neurobasal medium (Gibco) at 37° C. in an incubator equilibrated with 5% CO2 (Cho et al., 2015). The culture contains glial cells that were grown up to 70% to 80% confluency, where further growth was inhibited by treatment of 5-fluoro-2′-deoxyuridine (FUdR) ([…]; Sigma).
Neurons were transfected at 10 to 15 DIV using Lipofectamine 2000 (Invitrogen) for 1 to 6 days, and then experiments were performed at 14 to 17 DIV. All experiments handling animals and their embryos were performed in accordance with the guidelines and regulations of the Korea Institute of Science and Technology (KIST). All experimental protocols were approved by the KIST Institutional Animal Care and Use Committee (IACUC; approval number 2018-048). […]

[2] = test system: CCNY; assay: Acyl-biotinyl exchange (ABE) assay of CCNY palmitoylation in HEK293T cells; type: cell-based; settings: 4 hours prior to ABE assay, HEK293T cells (FIG. 3B)
Procedure: (§1) All images are single-plane images. […] The scale bars are 5 (B and C) show the results of an acyl-biotinyl exchange (ABE) assay. CCNY-WT-EGFP or CCNY-Mut(C7, 8S)-EGFP were overexpressed in HEK293T cells, and the cells were subsequently treated with a palmitoylation blocker, 2-bromopalmitate (2-BP, 30 μM or 100 μM), for 4 hours prior to the ABE assay.
(§2) The ABE assay was performed as previously described (Wan et al., 2007) with minor modifications. Briefly, HEK293T cells were transfected with CCNY-WT-EGFP, CCNY-Mut(C7,8S)-EGFP, or PSD-95-WT-EGFP. PSD-95-WT-EGFP was transfected with or without DHHC2-HA. Twenty four hours after transfection, the cells were lysed in lysis buffer (150 mM NaCl, 50 mM Tris, 5 mM EDTA, protease inhibitor cocktail, 1 mM PMSF, pH 7.4) with 1.7% Triton X-100 and 10 mM N-ethylmaleimide (NEM) for 1 hour at 4° C. The cell lysates were centrifuged at 250 g for 5 minutes at 4° C., and the resultant supernatants were applied to the chloroform-methanol (CM) precipitation methodology. […] The eluted samples in loading buffer (50 mM Tris-HCl, pH 6.8, 5% β-mercaptoethanol, 2% SDS, 0.01% bromophenol blue) were then boiled for 10 minutes at 95° C., applied to SDS-PAGE, and analyzed by immunoreactions with anti-CCNY (Proteintech Group), anti-PSD-95 (Thermo Scientific) and anti-GFP (Roche). […]

[3] = test system: PSD-95; assay: Acyl-biotinyl exchange (ABE) assay of PSD-95 palmitoylation (positive control) in HEK293T cells; type: cell-based; settings: in the presence of 2-bromopalmitate, HEK293T cells (FIG. 3C)
Procedure: as §1, §2

`CCCCCCCCCCCCCCC(Br)C(=O)O` (stereo not shown) [2-bromopalmitate] was tested. Which “membrane-associated localization of CCNY-WT-EGFP on the neuronal cell surface” value [1] did it give?
Its value is “altered”.

And the “palmitoylation of CCNY-WT-EGFP (ABE assay)” value ([2]; 2-bromopalmitate 30 μM)?
Its value is “no palmitoylation was detected; also recorded: blocked”.

And the “palmitoylation of CCNY-WT-EGFP (ABE assay)” value ([2]; 2-bromopalmitate 100 μM)?
The value was “no palmitoylation was detected; also recorded: blocked”.

What about the “palmitoylation of PSD-95 (ABE assay)” value [3] of the same compound?
The value was “inhibited”.
